In patent publication US11753407B2, “Compounds for treating spinal muscular atrophy” (PTC Therapeutics, Inc., priority 2012, dated 2023):

Legend:
Format in all cases: in vivo
[1] = system: Smn protein produced from the SMN2 gene; experiment: Smn protein assay in tissues of adult C/C-allele SMA mice; conditions: brain, spinal cord, muscle
Protocol: (§1) This Smn protein assay compares tissues from test compound treated mice with those from DMSO vehicle treated mice to determine the increase in levels of Smn protein produced from the human SMN2 gene.
(§2) Protocol. The tissue samples in Safe-Lock tubes are weighed and the volume of RIPA buffer containing the protease inhibitor cocktail is added based on the weight to volume ratios for each type of tissue: Brain (50 mg/mL), Muscle (50 mg/mL) and Spinal Cord (25 mg/mL).
(§3) Tissues are homogenized using the TissueLyzer by bead milling. 5 mm stainless steel beads are added to the sample and shaken vigorously for 5 minutes at 30 Hz in the TissueLyzer. […] Fluorescence for each well of the plate at 665 nm and 620 nm is measured on an EnVision multilabel plate reader (Perkin-Elmer). The total protein in the tissue homogenate is measured using the BCA assay according to the manufacturer's protocol.
(§4) The normalized fluorescence signal is calculated for each sample, Blank and vehicle control well by dividing the signal at 665 nm by the signal at 620 nm. Normalizing the signal accounts for possible fluorescence quenching due to the matrix effect of the tissue homogenate. […] The ΔF value for each tissue sample well is divided by the total protein quantity (determined using the BCA assay) for that tissue sample. […]

[2] = system: Smn protein produced from the SMN2 gene; experiment: Smn protein in tissues of neonatal Δ7 SMA mice; conditions: neonatal SMA Δ7 homozygous knockout mice, IP QD PND 3 to PND 9, brain, spinal cord
Protocol: as §1, §2, §3, §4

[3] = system: Smn protein; experiment: Smn protein levels in tissues of Δ7 SMA mice of the survival study; conditions: spinal cord
Protocol: as §2
as §3, with “TissueLyzer. The samples are then centrifuged for 20 minutes at 14,000×g in a microcentrifuge and the homogenates transferred to the PCR plate.” for “TissueLyzer.”
as §4
Protocol. […] The number of surviving mice in each group is recorded every day and plotted as a percent of total number of mice. […]

Row | Compound | total protein-normalized Smn level ([1]; 100 mg/kg BID for 10 days, relative to vehicle group (FIG. 11a)) | total protein normalized Smn level ([2]; muscle, skin (FIGS. 12a-d)) | Smn protein expression ([3]; IP 10 mg/kg QD PND 3-30, then orally 30 mg/kg BID PND 31-156, brain, muscle (FIG. 16a)) | total protein-normalized Smn level ([1]; 10 mg/kg BID for 10 days, relative to vehicle group (FIG. 11b)) | total protein normalized Smn level ([2]; muscle (FIGS. 12e-g)) | Smn protein expression ([3]; IP 3 mg/kg QD PND 3-23, orally 10 mg/kg BID PND 24-88, orally 20 mg/kg QD PND 89-185, brain, muscle (FIG. 16b))
1 | COc1ccc(-c2cc(=O)n3cc(N4CCNCC4)ccc3n2)cc1OC [Cpd 6, 2-(3,4-dimethoxyphenyl)-7-(piperazin-1-yl)-4H-pyrido[1,2-a]pyrimidin-4-one] | increased in brain, spinal cord, and muscle tissues | dose dependently increased in brain, spinal cord, muscle, and skin tissues | increased Smn protein expression in brain, spinal cord, and muscle tissues | – | – | –
2 | Cc1cn2nc(-c3cc(=O)n4cc(N5CCN(C)CC5)ccc4n3)cc2c(C)n1 [Cpd 170, 2-(4,6-dimethylpyrazolo[1,5-a]pyrazin-2-yl)-7-(4-methylpiperazin-1-yl)-4H-pyrido[1,2-a]pyrimidin-4-one] | – | – | – | increased in brain, spinal cord, and muscle tissues | dose dependently increased | increased Smn protein expression in brain, spinal cord, and muscle tissues
